Experimental findings from patent publication US20240302353A1, “CELL CULTURE DEVICE, KIT FOR CELL CULTURE, AND CELL CULTURE METHOD” (FUJIFILM Corporation, priority 2021, published 2024) are described below.

The data set deals with intestinal epithelial cells F-hiSIEC. Put plainly: Permeation test of Lucifer yellow across intestinal epithelial cell sheet on cell culture insert. Conditions: for Permeability coefficient (Papp) Average (mean): 110 μM Lucifer yellow/HBSS, 37° C., 1 hour. The format is in vitro ADME. As to the method:
One gas absorbent (oxygen scavenger) (Anaeropack: Mitsubishi Chemical Corporation) was installed in the upper tank of the cell culture device in FIG. 1, the upper tank portion was sealed, and the sealed upper tank portion was installed on the 6-well plate, which was the lower tank portion. In addition, intestinal epithelial cells F-hiSIEC (FUJIFILM Corporation) were seeded on a cell culture insert (Millipore) coated with Matrigel, and cultured for 9 days according to a manual using F-hiSIEC Culture Medium (FUJIFILM Corporation). 150 μL of F-hiSIEC Culture Medium (FUJIFILM Corporation) was added to an upper surface of the cell culture insert on which the cells on the 9th day of the culture had been seeded, and the cell culture insert was installed in the device from a lower side of the upper tank of the device, using the insertion tool shown in FIG. 5. While sandwiching the cell culture insert, 1 mL of a culture medium was added to a well plate of the lower tank, the upper tank portion of the device was installed in the well plate, and the entire device was placed in a CO2 incubator for culture for 72 hours. After the culture, a trans-epithelial electrical resistance (TEER) value of the intestinal epithelial cells was measured with an EVOM2 system. In addition, the permeation rate (Papp) of Lucifer yellow and the gene expression of various intestinal epithelial cell markers were compared with cells cultured under aerobic conditions in both the upper tank and the lower tank. The aerobic conditions in the upper tank and the lower tank mean cells cultured by installing a lid attached to the well plate without using the co-culture device. In the permeation test of Lucifer yellow, the upper and lower culture media in the insert containing the cells are substituted with HBSS and incubated at 37° C. for 1 hour. […] After 1 hour, the amount of substance which had passed through the lower part of the cell culture insert was quantified by a plate reader (Enspire, PerkinElmer Inc.), and the permeation rate and the permeability coefficient (Papp) were calculated.

For the substance Lucifer yellow, the “Permeability coefficient (Papp) Average (mean)” value was found to be 1.54 ×10⁻⁶ cm/s (F-hiSIEC cells cultured 72 hours in the cell culture device (upper tank anaerobic, lower tank aerobic)); 0.7 ×10⁻⁶ cm/s (F-hiSIEC cells cultured 72 hours under aerobic conditions in both upper and lower tank (no device)). For the same substance, where the note is “anaerobic vs aerobic cultured F-hiSIEC cells, 72 hours culture”, the “Increase of Papp in anaerobic cultured cells as compared with aerobic cells” value is given as “approximately 2 times”.
